biological target: biotinylated Avi-POLθ[2-894] (Homo sapiens (Human), UniProt O75417); experiment: POLθ ATPase assay (ADP-Glo); details: POLθ ATPase, ADP-Glo; n=2; read-out: Biochemical ATPase ADPGlo IC50
Sequence (O75417 2-894): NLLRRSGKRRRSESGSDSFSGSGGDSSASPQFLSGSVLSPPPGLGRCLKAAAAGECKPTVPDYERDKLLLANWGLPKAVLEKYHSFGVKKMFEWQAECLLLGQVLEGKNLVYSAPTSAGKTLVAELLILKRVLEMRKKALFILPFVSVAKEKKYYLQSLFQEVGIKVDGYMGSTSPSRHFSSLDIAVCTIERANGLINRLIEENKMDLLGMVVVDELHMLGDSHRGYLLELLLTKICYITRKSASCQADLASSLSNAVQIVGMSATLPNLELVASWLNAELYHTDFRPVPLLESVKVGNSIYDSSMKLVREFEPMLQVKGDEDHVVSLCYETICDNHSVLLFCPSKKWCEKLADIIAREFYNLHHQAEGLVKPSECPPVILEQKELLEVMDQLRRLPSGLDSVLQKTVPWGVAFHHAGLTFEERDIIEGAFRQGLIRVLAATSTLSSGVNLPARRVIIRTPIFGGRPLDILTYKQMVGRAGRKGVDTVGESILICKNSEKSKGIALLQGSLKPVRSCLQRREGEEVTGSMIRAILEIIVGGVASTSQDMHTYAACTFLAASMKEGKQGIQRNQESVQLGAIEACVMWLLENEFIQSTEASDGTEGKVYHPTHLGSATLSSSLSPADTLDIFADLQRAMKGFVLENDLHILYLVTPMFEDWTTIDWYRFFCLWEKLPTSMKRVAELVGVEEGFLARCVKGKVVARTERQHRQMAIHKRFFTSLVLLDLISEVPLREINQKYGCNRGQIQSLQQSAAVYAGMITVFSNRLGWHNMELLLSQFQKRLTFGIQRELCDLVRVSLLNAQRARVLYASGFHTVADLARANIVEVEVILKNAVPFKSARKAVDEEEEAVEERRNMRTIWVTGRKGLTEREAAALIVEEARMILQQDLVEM

IC50 [nM] | Structure (SMILES)
1 to 15 | COc1cnc(Cl)cc1-c1cc(C)ncc1C(=O)Nc1nc2c(s1)CN(C(=O)c1cnc(C(F)(F)F)nc1)C2 [Example 483]
1 to 15 | COc1cnc(Cl)cc1-c1cc(C)ncc1C(=O)Nc1nc2c(s1)CN(C(=O)c1cccnc1OC(F)F)C2 [Example 525]
1 to 15 | COc1cncc(C(=O)N2Cc3nc(NC(=O)c4cnc(C)cc4-c4cc(Cl)ncc4OC)sc3C2)n1 [Example 528]
150 to 900 | COc1cnc(Cl)cc1-c1cc(C)ncc1C(=O)Nc1nc2c(s1)C[C@@H](C(=O)N[C@H]1C[C@H](O)C1)CC2 [Example 669]
150 to 900 | COc1cnc(Cl)cc1-c1cc(C)ncc1C(=O)Nc1nc2c(s1)C[C@@H](C(=O)N1CC[C@@H](O)C1)CC2 [Example 681]
1 to 15 | COc1cnc(Cl)cc1-c1cc(C)ncc1C(=O)Nc1nc2c(s1)CN(C(=O)[C@@H]1CC[C@](O)(C(F)(F)F)C1)C2 [Example 734, 2′-chloro-N-(5-((1R,3R)-3-hydroxy-3-(trifluoromethyl)cyclopentane-1-carbonyl)-5,6-dihydro-4H-pyrrolo[3,4-d]thiazol-2-yl)-5′-methoxy-6-methyl-[4,4′-bipyridine]-3-carboxamide]
1 to 15 | COc1cnc(Cl)cc1-c1cc(C)ncc1C(=O)Nc1nc2c(s1)CN(C(=O)[C@H]1CC[C@](O)(C(F)(F)F)C1)C2 [Example 736, 2′-chloro-N-(S-((1S,3R)-3-hydroxy-3-(trifluoromethyl)cyclopentane-1-carbonyl)-5,6-dihydro-4H-pyrrolo[3,4-d]thiazol-2-yl)-5′-methoxy-6-methyl-[4,4′-bipyridine]-3-carboxamide]
1 to 15 | COc1cnc(Cl)cc1-c1cc(C)ncc1C(=O)Nc1nc2c(s1)CN(C(=O)[C@@H]1CCC[C@](O)(C(F)(F)F)C1)C2 [Example 761]
≥ 900 | COc1nc(C(=O)N2Cc3nc(NC(=O)c4cnc(C)cc4-c4cc(Cl)cnc4O)sc3C2)c(C)cc1C(F)(F)F [Example 1043, 5-chloro-2-hydroxy-N-(5-(6-methoxy-3-methyl-5-(trifluoromethyl)picolinoyl)-5,6-dihydro-4H-pyrrolo[3,4-d]thiazol-2-yl)-6′-methyl-[3,4′-bipyridine]-3′-carboxamide]

same assay, conditions: n=2; read-out: Biochemical ATPase ADPGlo IC50

IC50 [nM] | Structure (SMILES)
15 to 50 | COc1cnc(C)cc1-c1cc(C)ncc1C(=O)Nc1nc2c(s1)CN(C(=O)c1ccccn1)C2 [Example 108, 5′-methoxy-2′,6-dimethyl-N-(5-picolinoyl-5,6-dihydro-4H-pyrrolo[3,4-d]thiazol-2-yl)-[4,4′-bipyridine]-3-carboxamide]
1 to 15 | COc1cnc(Cl)cc1-c1cc(C)ncc1C(=O)Nc1nc2c(s1)CN(C(=O)C1CCC(O)(C(F)(F)F)CC1)C2 (stereo not drawn) [Example 112]
15 to 50 | COc1cnc(Cl)cc1-c1cc(C)ncc1C(=O)Nc1nc2c(s1)CN(C(=O)[C@H]1CC[C@@H](O)CC1)C2 [Example 115]
1 to 15 | COc1cnc(Cl)cc1-c1cc(C)ncc1C(=O)Nc1nc2c(s1)CN(C(=O)C1CC(OC(C)C)C1)C2 (stereo not drawn) [Example 119]
15 to 50 | COc1cnc(Cl)cc1-c1cc(C)ncc1C(=O)Nc1nc2c(s1)CN(C(=O)C1CN(CC(F)(F)F)C1)C2 [Example 120]
1 to 15 | COc1cn2cncc2cc1-c1cc(C)ncc1C(=O)Nc1nc2c(s1)CN(C(=O)c1cccnc1OC)C2 [Example 124]
1 to 15 | COc1cnc(Cl)cc1-c1cc(C)ncc1C(=O)Nc1nc2c(s1)CN(C(=O)N1CC[C@@H](O)C1)C2 [Example 129]
1 to 15 | COc1cnc(Cl)cc1-c1cc(C)ncc1C(=O)Nc1nc2c(s1)CN(C(=O)c1ccnn1CC(F)F)C2 [Example 143, 2′-chloro-N-(5-(1-(2,2-difluoroethyl)-1H-pyrazole-5-carbonyl)-5,6-dihydro-4H-pyrrolo[3,4-d]thiazol-2-yl)-5′-methoxy-6-methyl-[4,4′-bipyridine]-3-carboxamide]
50 to 150 | COc1cnc(Cl)cc1-c1cc(C)ncc1C(=O)Nc1nc2c(s1)CN(C(=O)N1CC(O)C1)C2 [Example 149]
1 to 15 | COc1cnc(Cl)cc1-c1cc(C)ncc1C(=O)Nc1nc2c(s1)CN(C(=O)c1cn(C)nc1C(F)F)C2 [Example 173]
50 to 150 | COc1ccc(C#N)cc1-c1cc(C)ncc1C(=O)Nc1nc2c(s1)CN(C(=O)C1CC(OC(F)F)C1)CC2 (stereo not drawn) [Example 176]
1 to 15 | COc1cnc(Cl)cc1-c1cc(C)ncc1C(=O)Nc1nc2c(s1)CN(C(=O)C1CCC(O)C1)C2 (stereo not drawn) [Example 180]
1 to 15 | COc1cnc(Cl)cc1-c1cc(C)ncc1C(=O)Nc1nc2c(s1)CN(C(=O)[C@@H]1CCOC1)C2 [Example 181]
1 to 15 | COc1cnc(Cl)cc1-c1cc(C)ncc1C(=O)Nc1nc2c(s1)CN(C(=O)c1ncco1)C2 [Example 182]
1 to 15 | COc1cnc(Cl)cc1-c1cc(C)ncc1C(=O)Nc1nc2c(s1)CN(C(=O)[C@H]1CCCOC1)C2 [Example 183]
1 to 15 | COc1cnc(Cl)cc1-c1cc(C)ncc1C(=O)Nc1nc2c(s1)CN(C(=O)C1CCOCC1)C2 [Example 184]
1 to 15 | COc1cnc(Cl)cc1-c1cc(C)ncc1C(=O)Nc1nc2c(s1)CN(C(=O)[C@H]1C[C@@H](O)C1)C2 [Example 185]
1 to 15 | COc1cnc(Cl)cc1-c1cc(C)ncc1C(=O)Nc1nc2c(s1)CN(C(=O)[C@H]1CCCCO1)C2 [Example 186]
1 to 15 | COc1cnc(Cl)cc1-c1cc(C)ncc1C(=O)Nc1nc2c(s1)CN(C(=O)[C@H]1C[C@H](O)C1)C2 [Example 187]
1 to 15 | COc1ccc(C#N)cc1-c1cc(C)ncc1C(=O)Nc1nc2c(s1)CN(C(=O)C1CC(C)C1)C2 (stereo not drawn) [Example 189]
1 to 15 | COc1cnc(Cl)cc1-c1cc(C)ncc1C(=O)Nc1nc2c(s1)CN(C(=O)C1CC3(COC3)C1)C2 [Example 192]
1 to 15 | COc1cnc(Cl)cc1-c1cc(C)ncc1C(=O)Nc1nc2c(s1)CN(C(=O)[C@H]1C[C@@](C)(O)C1)C2 [Example 193]
1 to 15 | COc1cnc(Cl)cc1-c1cc(C)ncc1C(=O)Nc1nc2c(s1)CN(C(=O)[C@H]1C[C@](O)(C(F)F)C1)C2 [Example 195]
50 to 150 | COc1cnc(Cl)cc1-c1cc(C)ncc1C(=O)Nc1nc2c(s1)C[C@@H](NC(=O)C1CC1)CC2 [Example 200]

IC50 [nM] | Structure (SMILES)
1 to 15 | COc1cnc(Cl)cc1-c1cc(C)ncc1C(=O)Nc1nc2c(s1)CN(C(=O)C1CC(O)(C(F)(F)F)C1)C2 (stereo not drawn) [Example 204]
15 to 50 | COc1ccc(C#N)cc1-c1cc(C)ncc1C(=O)Nc1nc2c(s1)CN(C(=O)C1CC1OC)CC2 (stereo not drawn) [Example 207]
15 to 50 | COc1ccc(C#N)cc1-c1cc(C)ncc1C(=O)Nc1nc2c(s1)CN(C(=O)C1CC1C)CC2 (stereo not drawn) [Example 211]
50 to 150 | COc1ccc(C#N)cc1-c1cc(C)ncc1C(=O)Nc1nc2c(s1)CN(S(=O)(=O)C1COC1)C2 [Example 217]
15 to 50 | COc1ccc(C#N)cc1-c1cc(C)ncc1C(=O)Nc1nc2c(s1)CN(C(=O)[C@H]1C[C@H](OC)C1)C2 [Example 221]
150 to 900 | COc1ccc(C#N)cc1-c1cc(C)ncc1C(=O)Nc1nc2c(s1)CN(C(=O)[C@@H]1CCCOC1)CC2 [Example 223]
150 to 900 | COc1ccc(C#N)cc1-c1cc(C)ncc1C(=O)Nc1nc2c(s1)CN(C(=O)C1CCC1)CC2 [Example 224]
1 to 15 | COc1ccc(C#N)cc1-c1cc(C)ncc1C(=O)Nc1nc2c(s1)CN(S(=O)(=O)NC1CCCC1)C2 [Example 230]
1 to 15 | COc1cnc(Cl)cc1-c1cc(C)ncc1C(=O)Nc1nc2c(s1)CN(S(=O)(=O)C1CC1)C2 [Example 234]
1 to 15 | COc1ccc(C#N)cc1-c1cc(C)ncc1C(=O)Nc1nc2c(s1)CN(C(=O)[C@@H]1CC[C@H]1OC)C2 [Example 235]
150 to 900 | COc1ccc(C#N)cc1-c1cc(C)ncc1C(=O)Nc1nc2c(s1)CN(C(=O)c1ccccn1)CC2 [Example 247]
50 to 150 | COc1ccccc1-c1cc(C)ncc1C(=O)Nc1nc2c(s1)CN(C(=O)c1nc3ccccn3n1)C2 [Example 252]
15 to 50 | COc1ccccc1-c1cc(C)ncc1C(=O)Nc1nc2c(s1)CN(C(=O)c1cccc3ccnn13)C2 [Example 253]
150 to 900 | COc1ccccc1-c1cc(C)ncc1C(=O)Nc1nc2c(s1)CN(C(=O)C1COC1)C2 [Example 256]
15 to 50 | COc1ccc(C#N)cc1-c1cc(C)ncc1C(=O)Nc1nc2c(s1)CN(C(=O)[C@@H]1CCCO1)C2 [Example 261]
50 to 150 | COc1ccccc1-c1cc(C)ncc1C(=O)Nc1nc2c(s1)CN(S(=O)(=O)NC(C)C)C2 [Example 280]
150 to 900 | COc1ccccc1-c1cc(C)ncc1C(=O)Nc1nc2c(s1)CN(C(=O)c1ccccn1)C2 [Example 323]
150 to 900 | COc1ccccc1-c1cc(C)ncc1C(=O)Nc1nc2c(s1)CN(C(=O)C1CCCCO1)C2 (stereo not drawn) [Example 324, 4-(2-methoxyphenyl)~6-methyl-N-(5-{3-oxabicyclo[3.1.0]hexane-6-carbonyl}-4H,5H,6H-pyrrolo[3,4-d][1,3]thiazol-2-yl)pyridine-3-carboxamide]
150 to 900 | COc1ccccc1-c1cc(C)ncc1C(=O)Nc1nc2c(s1)CC(c1ccc(Cl)cc1)=CC2 [Example 328]
150 to 900 | COc1ccccc1-c1cc(C)ncc1C(=O)Nc1nc2c(s1)CN(C(=O)OC(C)(C)C)CC2 [Example 335]
150 to 900 | COc1ccccc1-c1cc(C)ncc1C(=O)Nc1nc2c(s1)CN(C(=O)c1cccnn1)C2 [Example 342, 4-(2-methoxyphenyl)~6-methyl-N-[5-(1-methyl-6-oxo-1,6-dihydropyridine-3-carbonyl)-4H,5H,6H-pyrrolo[3,4-d][1,3]thiazol-2-yl]pyridine-3-carboxamide]
150 to 900 | COc1ccccc1-c1cc(C)ncc1C(=O)Nc1nc2c(s1)CN(C(=O)C1CCNC1=O)C2 (stereo not drawn) [Example 345]
≥ 900 | COc1ccccc1-c1cc(C)ncc1C(=O)Nc1nc2c(s1)CN(C1CC1)C2=O [Example 352, N-(5-cyclopropyl-4-oxo-5,6-dihydro-4H-pyrrolo[3,4-d]thiazol-2-yl)-4-(2-methoxyphenyl)-6-methylnicotinamide]
≥ 900 | COc1ccccc1-c1cc(C)ncc1C(=O)Nc1nc2c(s1)CC(=O)CC2 [Example 373]

From US20250230171A1 (MOMA Therapeutics, Inc., priority 2023, published 2025)
